Laboratory results reported in ChEMBL document CHEMBL1136754, “Mechanism of action of the diazabicyclononanone-type kappa-agonists” (J Med Chem, 2003).

Experiments:
Assay type in all cases: tissue-based
Mu-type opioid receptor = Mu-type opioid receptor (Rattus norvegicus, UniProt P33535); assay: Binding affinity towards Opioid receptor mu 1 using [3H]naloxone as radioligand in rat brain
[1] = target: Delta-type opioid receptor (Rattus norvegicus, UniProt P33533); assay: Binding affinity towards Opioid receptor delta 1 using [3H]CI-DPDPE as radioligand in rat brain
Delta-type opioid receptor, sequence (P33533 whole entry): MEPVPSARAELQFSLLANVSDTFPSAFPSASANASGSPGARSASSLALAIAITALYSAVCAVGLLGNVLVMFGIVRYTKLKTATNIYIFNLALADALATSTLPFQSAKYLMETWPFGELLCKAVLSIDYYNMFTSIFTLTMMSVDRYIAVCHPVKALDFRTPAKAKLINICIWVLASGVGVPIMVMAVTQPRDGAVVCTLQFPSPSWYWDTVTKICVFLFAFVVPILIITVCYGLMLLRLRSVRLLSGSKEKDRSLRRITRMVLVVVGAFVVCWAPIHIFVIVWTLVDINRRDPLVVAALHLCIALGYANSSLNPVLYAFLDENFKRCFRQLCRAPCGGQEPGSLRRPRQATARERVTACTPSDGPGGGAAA

[2] = target: Kappa-type opioid receptor (Rattus norvegicus, UniProt P34975); assay: Binding affinity towards KOR (Opioid receptor kappa 1) using [3H]CI977 as radioligand in rat brain
Kappa-type opioid receptor, sequence (P34975 whole entry): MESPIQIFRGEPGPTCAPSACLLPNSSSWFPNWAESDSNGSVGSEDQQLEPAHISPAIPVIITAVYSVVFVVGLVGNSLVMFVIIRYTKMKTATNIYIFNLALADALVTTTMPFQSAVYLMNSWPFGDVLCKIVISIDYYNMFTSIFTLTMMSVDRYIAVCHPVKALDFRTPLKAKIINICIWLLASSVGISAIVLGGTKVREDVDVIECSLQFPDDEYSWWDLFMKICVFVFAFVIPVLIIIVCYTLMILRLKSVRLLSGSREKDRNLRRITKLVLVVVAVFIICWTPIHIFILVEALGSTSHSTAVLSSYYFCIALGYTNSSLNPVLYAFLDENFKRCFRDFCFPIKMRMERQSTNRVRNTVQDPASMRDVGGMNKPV

Mu-type opioid receptor, sequence (P33535 whole entry): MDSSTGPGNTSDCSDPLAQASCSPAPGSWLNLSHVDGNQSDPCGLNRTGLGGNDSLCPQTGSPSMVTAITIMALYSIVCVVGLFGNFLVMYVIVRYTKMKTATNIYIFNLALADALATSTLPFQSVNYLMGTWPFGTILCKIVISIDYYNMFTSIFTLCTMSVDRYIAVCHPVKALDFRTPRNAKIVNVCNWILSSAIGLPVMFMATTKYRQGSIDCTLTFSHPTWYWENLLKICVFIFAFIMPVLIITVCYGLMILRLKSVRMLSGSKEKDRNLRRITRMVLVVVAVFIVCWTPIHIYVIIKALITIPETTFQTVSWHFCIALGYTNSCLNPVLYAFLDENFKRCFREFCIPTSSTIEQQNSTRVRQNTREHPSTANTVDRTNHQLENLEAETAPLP

Compound `CN1CC2C(=O)C(C1)C(c1ccccn1)N(C)C2c1ccccn1` (stereo not drawn) has a Ki (Mu-type opioid receptor) of over 1000 nM, a Ki [1] of over 10000 nM and a Ki [2] of 15 nM.
